Measurements published in ChEMBL document CHEMBL1201862, “PubChem BioAssay data set” (2004).
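Briefly, cells in 96-well plates were exposed to five compound concentrations for 48 h, and endpoints were estimated by linear interpolation. GI50: concentration for 50% inhibition of growth.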 Active and inactive are the calls of the source. No stated cut-off is given here; in the data, active = GI50 up to about 1.1 µM and inactive = higher.

Assays:
Experiment in all cases: NCI anticancer screen, dose series, 48 h
[1] = tested on: COLO 205
[2] = tested on: SF-295
[3] = tested on: SF-268
[4] = tested on: KM12
[5] = tested on: RPMI-8226
[6] = tested on: NCI-H522
[7] = tested on: 786-0
[8] = tested on: CCRF-CEM
[9] = tested on: U-251
[10] = tested on: HOP-62
[11] = tested on: SK-MEL-2
[12] = tested on: OVCAR-8
[13] = tested on: MOLT-4
[14] = tested on: HT-29
[15] = tested on: MDA-MB-231
[16] = tested on: OVCAR-4
[17] = tested on: NCI/ADR-RES
[18] = tested on: NCI-H460
[19] = tested on: SW-620
[20] = tested on: NCI-H23
[21] = tested on: SR
[22] = tested on: MCF7
[23] = tested on: HCT-15
[24] = tested on: SK-MEL-28
[25] = tested on: UO-31
[26] = tested on: SK-OV-3
[27] = tested on: HCC 2998
[28] = tested on: NCI-H226
[29] = tested on: OVCAR-5
[30] = tested on: TK-10
[31] = tested on: SF-539
[32] = tested on: IGROV-1
[33] = tested on: ACHN
[34] = tested on: DU-145
[35] = tested on: Hs-578T
[36] = tested on: HOP-92
[37] = tested on: A549
[38] = tested on: HL-60
[39] = tested on: K562
[40] = tested on: MDA-N
[41] = tested on: HCT-116
[42] = tested on: RXF 393
[43] = tested on: SNB-75
[44] = tested on: M14
[45] = tested on: SNB-19
[46] = tested on: OVCAR-3
[47] = tested on: PC-3
[48] = tested on: T47D
[49] = tested on: SN12C
[50] = tested on: LOX IMVI
[51] = tested on: Malme-3M
[52] = tested on: MDA-MB-435
[53] = tested on: SK-MEL-5
[54] = tested on: UACC-257
[55] = tested on: CAKI-1
[56] = tested on: A498
[57] = tested on: UACC-62
[58] = tested on: EKVX

SMILES: CSc1nc2c(=O)n(-c3ccccc3)c(=S)n(-c3ccccc3)c2s1
- GI50 [1]: > 100 µM (inactive)
- GI50 [2]: 97.5 µM (inactive)
- GI50 [3]: 65 µM (inactive)
- GI50 [4]: 49 µM (inactive)
- GI50 [5]: > 100 µM (inactive)
- GI50 [6]: > 100 µM (inactive)
- GI50 [7]: 25.9 µM (inactive)
- GI50 [8]: > 100 µM (inactive)
- GI50 [9]: 38.5 µM (inactive)
- GI50 [10]: 42 µM (inactive)
- GI50 [11]: > 100 µM (inactive)
- GI50 [12]: > 100 µM (inactive)
- GI50 [13]: 63.2 µM (inactive)
- GI50 [14]: > 100 µM (inactive)
- GI50 [15]: 49.2 µM (inactive)
- GI50 [16]: 71.4 µM (inactive)
- GI50 [17]: 85.1 µM (inactive)
- GI50 [18]: > 100 µM (inactive)
- GI50 [19]: > 100 µM (inactive)
- GI50 [20]: > 100 µM (inactive)
- GI50 [21]: > 100 µM (inactive)
- GI50 [22]: > 100 µM (inactive)
- GI50 [23]: > 100 µM
- GI50 [24]: > 100 µM (inactive)
- GI50 [25]: > 100 µM (inactive)
- GI50 [26]: 81.3 µM (inactive)
- GI50 [27]: > 100 µM (inactive)
- GI50 [28]: 31.1 µM (inactive)
- GI50 [29]: > 100 µM (inactive)
- GI50 [30]: 42.1 µM (inactive)
- GI50 [31]: 39.9 µM (inactive)
- GI50 [32]: > 100 µM (inactive)
- GI50 [33]: 45.4 µM (inactive)
- GI50 [34]: > 100 µM (inactive)
- GI50 [35]: 29.2 µM (inactive)
- GI50 [36]: 25.4 µM (inactive)
- GI50 [37]: > 100 µM (inactive)
- GI50 [38]: > 100 µM (inactive)
- GI50 [39]: > 100 µM (inactive)
- GI50 [40]: > 100 µM (inactive)
- GI50 [41]: > 100 µM (inactive)
- GI50 [42]: 34.4 µM (inactive)
- GI50 [43]: 41.6 µM (inactive)
- GI50 [44]: 70 µM (inactive)
- GI50 [45]: 14.2 µM (inactive)
- GI50 [46]: 67 µM (inactive)
- GI50 [47]: > 100 µM (inactive)
- GI50 [48]: > 100 µM (inactive)
- GI50 [49]: 37.9 µM (inactive)
- GI50 [50]: 82 µM (inactive)
- GI50 [51]: 64.1 µM (inactive)
- GI50 [52]: > 100 µM (inactive)
- GI50 [53]: > 100 µM (inactive)
- GI50 [54]: > 100 µM (inactive)

SMILES: N#CC(C#N)C1CN2CCC1CC2 (stereo unspecified)
- GI50 [1]: > 100 µM (inactive)
- GI50 [2]: > 100 µM (inactive)
- GI50 [3]: > 100 µM (inactive)
- GI50 [4]: > 100 µM (inactive)
- GI50 [5]: > 100 µM (inactive)
- GI50 [6]: > 100 µM (inactive)
- GI50 [55]: > 100 µM (inactive)
- GI50 [7]: > 100 µM (inactive)
- GI50 [8]: > 100 µM (inactive)
- GI50 [9]: > 100 µM (inactive)
- GI50 [10]: > 100 µM (inactive)
- GI50 [11]: > 100 µM (inactive)
- GI50 [12]: 79.6 µM (inactive)
- GI50 [56]: > 100 µM (inactive)
- GI50 [13]: > 100 µM (inactive)
- GI50 [14]: > 100 µM (inactive)
- GI50 [15]: > 100 µM (inactive)
- GI50 [16]: > 100 µM (inactive)
- GI50 [17]: > 100 µM (inactive)
- GI50 [18]: > 100 µM (inactive)
- GI50 [19]: > 100 µM (inactive)
- GI50 [20]: > 100 µM (inactive)
- GI50 [21]: > 100 µM (inactive)
- GI50 [22]: > 100 µM (inactive)
- GI50 [23]: > 100 µM
- GI50 [24]: > 100 µM (inactive)
- GI50 [25]: > 100 µM (inactive)
- GI50 [26]: > 100 µM (inactive)
- GI50 [57]: > 100 µM (inactive)
- GI50 [27]: > 100 µM (inactive)
- GI50 [28]: > 100 µM (inactive)
- GI50 [58]: > 100 µM (inactive)
- GI50 [29]: > 100 µM (inactive)
- GI50 [30]: > 100 µM (inactive)
- GI50 [31]: > 100 µM (inactive)
- GI50 [32]: > 100 µM (inactive)
- GI50 [33]: > 100 µM (inactive)
- GI50 [34]: > 100 µM (inactive)
- GI50 [35]: > 100 µM (inactive)
- GI50 [37]: > 100 µM (inactive)
- GI50 [38]: > 100 µM (inactive)
- GI50 [39]: > 100 µM (inactive)
- GI50 [40]: > 100 µM (inactive)
- GI50 [41]: > 100 µM (inactive)
- GI50 [42]: 90.4 µM (inactive)
- GI50 [43]: > 100 µM (inactive)
- GI50 [44]: > 100 µM (inactive)
- GI50 [45]: > 100 µM (inactive)
- GI50 [46]: > 100 µM (inactive)
- GI50 [47]: > 100 µM (inactive)
- GI50 [48]: > 100 µM (inactive)
- GI50 [49]: > 100 µM (inactive)
- GI50 [50]: > 100 µM (inactive)
- GI50 [51]: > 100 µM (inactive)
- GI50 [52]: > 100 µM (inactive)
- GI50 [53]: > 100 µM (inactive)
- GI50 [54]: > 100 µM (inactive)
